Measurements from patent EP0585371B1, “AROMATIC OLIGOMERIC COMPOUNDS USEFUL AS MIMICS OF BIOACTIVE MACROMOLECULES” (RHONE-POULENC RORER INTERNATIONAL (HOLDINGS) INC., priority 1991, dated 1992).
Several values for one entry are separate records, joined by “and”; a condition that tells them apart may be missing. Equal values may be shown once. Read-outs that look alike come from different tables or passages of the source.

Tests used:
[1] = tested on: normal pooled plasma; test: Anticoagulation activity, Activated Partial Thromboplastin Time (APTT) test; conditions: concentration required to double clotting time
Method: The following test measures anticoagulant activity of the oligomers of the present invention and utilizes the Activated Partial Thromboplastin Time (APTT) test, with the following procedures.
To an assay cuvette is added 100 µl of normal pooled plasma (George King Biomedical Inc., Kansas) and […] of a solution containing the test compound in aqueous 50 mM Tris hydrochloride at pH 7.5 (0.2 mg of sample in one ml buffer). The sample is placed in a MLA coagulation timer which automatically maintains the sample at 37°C for 2.5 minutes, 100 µl of actin activated cephaloplastin reagent is injected, kept 5 minutes, 100 µl of 35 mM CaCI is injected, and clot formation is determined photometrically and the clotting time recorded. Each example is examined at a variety of concentrations, generally from about .025 mg/ml to about 1 mg/ml, and the clotting times are graphed as a function of concentration. From the graphic results, the concentration required to double clotting time (ICDCT) is calculated by linear interpolation.

[2] = target: T1, vWF Binding to Gp1b (Homo sapiens, UniProt P04275+P07359); test: Inhibition of ristocetin-induced binding of 125I-vWF to formalin-fixed platelets; conditions: at 100 µg/ml; ristocetin 1.0 mg/ml
T1 construct: multimeric vWF (isolated from human plasma cryoprecipitate); Formalin-fixed platelets, prepared according to the method of MacFarlane; from tissue; host or cells: vWF from human plasma cryoprecipitate; GPIb on formalin-fixed platelets
Method: The binding of vWf (vonWillebrand Factor) to glycoprotein Ib is measured in one of two experimental systems, in the presence of either ristocetin or botrocetin as modulators of binding. The ristocetin modulated binding is described herein.
Formalin-fixed platelets, prepared according to the method of MacFarlane, D. et al., Thromb. Diath. Haemorrh. 34, 306-308 (1975), were preincubated at room temperature for 15 minutes with specified dilutions of oligomers according to the present invention. Ristocetin, (Sigma, St. Louis, MO) diluted to a final concentration of 1.0 mg/ml, and ^125I-labelled multimeric vWF (isolated from human plasma cryoprecipitate according to the method of Fulcher, C.A. et al. Proc. Natl. Acad. Sci. USA, 79, 1648-1652 (1982), and labelled according to the method of Fraker, P.J. et al. Biochem. Biophys. Res. Commun., 80, 849-857 (1978)) were then added to the incubation mixture, and the amount of ^125I- vWF bound to the platelets was determined. ^125I-vWF binding to the platelets was referenced against 100% binding which was defined as the amount of ^125I- vWF bound in the absence of added oligomer compound. The method for measuring vWF binding is reported in detail in Ruggeri et al., J. Clin. Invest., 72, 1-12, (1983), herein incorporated by reference.

[3] = target: T2, Human neutrophil elastase (Homo sapiens, UniProt P08246); test: Human Granulocyte Elastase Inhibition Assay; type: biochemical; conditions: substrate S-2484, pH 8.3
T2 construct: purchased ICN Biochemical
T2 sequence (P08246 30-267): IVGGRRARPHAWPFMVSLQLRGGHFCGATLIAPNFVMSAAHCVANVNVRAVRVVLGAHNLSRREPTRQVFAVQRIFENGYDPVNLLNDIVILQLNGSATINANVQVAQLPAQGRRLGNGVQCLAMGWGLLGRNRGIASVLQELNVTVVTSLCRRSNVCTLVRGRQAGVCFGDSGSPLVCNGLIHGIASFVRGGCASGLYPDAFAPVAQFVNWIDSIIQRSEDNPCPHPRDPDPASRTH
Method: The Human Granulocyte Elastase Inhibition assay is a standard test procedure and is essentially that of Kramps, et al., "L-Pyroglutamyl-L-prolyl-L-valine-p-nitroanilide, a highly specific substrate for granulocyte elastase", Scand. J. clin. Lab. Invest. 43, 427-432 (1983).
A stock solution of 8.0 mM L-pyroglutamyl-L-prolyl-L-valine-p-nitroanilide (S-2484, obtained from Kabi) in dimethylsulfoxide is diluted to 2.0 mM in 0.03 M Tris buffer, pH 8.3, to give the working substrate solution. Human neutrophil elastase (obtained from ICN Biochemical) is diluted in the same buffer to 1 unit/ml to give the working enzyme solution.
A control assay is run in which a solution of 10 µl of buffer and 10µl of working enzyme solution is incubated at room temperature for 1 minute and 330 µl of buffer and 50 µl of working substrate solution is then added. The increase in absorbance (ΔOD/min) at 405 nm is measured.
In the experimental assay 10µl of a solution containing a compound of the present invention (in concentrations ranging from 1 mg/ml to 0.1 µg/ml), or other inhibitor to be tested, in buffer is substituted for the 10 µl of buffer with which the enzyme is incubated in the control assay and the procedure followed as for the control assay above. The ΔOD/min is measured and the result expressed as percentage inhibition for the given concentration of inhibitor as compared with the ΔOD/min for the control. Percent inhibition versus concentration of compound of the present invention or other inhibitor is plotted and the data extrapolated to give the concentration required for 50% inhibition of the enzyme (IC50).

[4] = tested on: Vascular smooth muscle cells (VSMC); test: Smooth Muscle Cell DNA Synthesis Assay (3H-thymidine incorporation in response to PDGF); type: cell-based, swine; conditions: inhibition of incorporation of 3H-thymidine in response to PDGF (9 ng/ml)
Method: Vascular smooth muscle cells (VSMC) are isolated from swine coronaries obtained from swine hearts (Hatfield Meat Packing, Hatfield, PA) by enzyme dissociation as described by Gunther, et al., in J. Cell. Biol. 92, 289 (1982). Hyaluronidase (0.5 mg/ml) is added to facilitate dispersal. Cells are maintained in Earle's modified minimal essential medium (EMEM) with D-valine substituted for L-valine, supplemented with Hepes (10 mM), fetal bovine serum (FBS) (10%), penicillin (100 U/ml) and streptomycin ( 100 µg/ml).
The VSMC (passage 2) are plated at a density of 3 x 10^4 /cm2 (1x10^4 cells/well of 96 well tray) and after 48 hours of normal growth are arrested by replacement of above media with serum-free media for 48 hours consisting of: EMEM: Hams F12 (1:1), insulin, 5 µg/ml; transferrin, 35 µg/ml; selenite, 5 ng/ml; antibiotics and buffer (as above). The oligomer of the present invention to be tested (.01-10 µM) is added 2 hours prior to addition of porcine platelet derived growth factor (Research and Diagonostics, Minneapolis, MN), or FBS,in fresh serum-free media. Twenty-four hours later the oligomers are again added preceding addition of growth factors by 2 hours. […]
The VSMC are pulsed (5 hours) with ^3H-thymidine (Amersham, Arlington Heights, IL) (1 µCi/well of a 96 well plate; 42 Ci/mmole) added 15-18 hours after the last dose of growth factor. DNA synthesis is determined in NaOH extraction of ethanol/ether fixed cells as reported by Nemecek, et al., PNAS 83, 674 (1986). The cells are washed with phosphate bufferred saline (200 µl/well of 96-well tray. The cells are incubated with trichloroacetic acid (TCA) (10%, 200 ul) for 5 minutes to remove cytoplasmic label. After a rapid wash with cold 10% TCA, cells are fixed with ethanol/ether (2:1, 200 µl/well 5 min) and dried. The labeled DNA is extracted with 0.5 N NaOH (200 µl/well 30 min incubation, room temperature). The extracted DNA is neutralized (0.5 N HCI) and counted by liquid scintillation.
Statistical evaluation is as reported by Bilder, et al., Am. […] IC50 values are calculated by linear regression (RPL of RS1) from % inhibition of a minimum of 3 log fold dilutions of oligomers in the presence of PDGF (9 ng/ml) which give 70-80% of a maximal PDGF response. […] Percent inhibition is calculated by comparing the effect of PDGF alone (vehicle treated cultures + PDGF minus vehicle treated cultures without PDGF) to the effect of oligomers (oligomer + PDGF minus oligomer alone) and divided by the effect of PDGF times 100. i.e., = % inhibition = ((ΔVehicle + PDGF) - (Δoligomer + PDGF)/(Δvehicle + PDGF)) x 100.

T1 sequence (P04275 764-2813 limits assumed): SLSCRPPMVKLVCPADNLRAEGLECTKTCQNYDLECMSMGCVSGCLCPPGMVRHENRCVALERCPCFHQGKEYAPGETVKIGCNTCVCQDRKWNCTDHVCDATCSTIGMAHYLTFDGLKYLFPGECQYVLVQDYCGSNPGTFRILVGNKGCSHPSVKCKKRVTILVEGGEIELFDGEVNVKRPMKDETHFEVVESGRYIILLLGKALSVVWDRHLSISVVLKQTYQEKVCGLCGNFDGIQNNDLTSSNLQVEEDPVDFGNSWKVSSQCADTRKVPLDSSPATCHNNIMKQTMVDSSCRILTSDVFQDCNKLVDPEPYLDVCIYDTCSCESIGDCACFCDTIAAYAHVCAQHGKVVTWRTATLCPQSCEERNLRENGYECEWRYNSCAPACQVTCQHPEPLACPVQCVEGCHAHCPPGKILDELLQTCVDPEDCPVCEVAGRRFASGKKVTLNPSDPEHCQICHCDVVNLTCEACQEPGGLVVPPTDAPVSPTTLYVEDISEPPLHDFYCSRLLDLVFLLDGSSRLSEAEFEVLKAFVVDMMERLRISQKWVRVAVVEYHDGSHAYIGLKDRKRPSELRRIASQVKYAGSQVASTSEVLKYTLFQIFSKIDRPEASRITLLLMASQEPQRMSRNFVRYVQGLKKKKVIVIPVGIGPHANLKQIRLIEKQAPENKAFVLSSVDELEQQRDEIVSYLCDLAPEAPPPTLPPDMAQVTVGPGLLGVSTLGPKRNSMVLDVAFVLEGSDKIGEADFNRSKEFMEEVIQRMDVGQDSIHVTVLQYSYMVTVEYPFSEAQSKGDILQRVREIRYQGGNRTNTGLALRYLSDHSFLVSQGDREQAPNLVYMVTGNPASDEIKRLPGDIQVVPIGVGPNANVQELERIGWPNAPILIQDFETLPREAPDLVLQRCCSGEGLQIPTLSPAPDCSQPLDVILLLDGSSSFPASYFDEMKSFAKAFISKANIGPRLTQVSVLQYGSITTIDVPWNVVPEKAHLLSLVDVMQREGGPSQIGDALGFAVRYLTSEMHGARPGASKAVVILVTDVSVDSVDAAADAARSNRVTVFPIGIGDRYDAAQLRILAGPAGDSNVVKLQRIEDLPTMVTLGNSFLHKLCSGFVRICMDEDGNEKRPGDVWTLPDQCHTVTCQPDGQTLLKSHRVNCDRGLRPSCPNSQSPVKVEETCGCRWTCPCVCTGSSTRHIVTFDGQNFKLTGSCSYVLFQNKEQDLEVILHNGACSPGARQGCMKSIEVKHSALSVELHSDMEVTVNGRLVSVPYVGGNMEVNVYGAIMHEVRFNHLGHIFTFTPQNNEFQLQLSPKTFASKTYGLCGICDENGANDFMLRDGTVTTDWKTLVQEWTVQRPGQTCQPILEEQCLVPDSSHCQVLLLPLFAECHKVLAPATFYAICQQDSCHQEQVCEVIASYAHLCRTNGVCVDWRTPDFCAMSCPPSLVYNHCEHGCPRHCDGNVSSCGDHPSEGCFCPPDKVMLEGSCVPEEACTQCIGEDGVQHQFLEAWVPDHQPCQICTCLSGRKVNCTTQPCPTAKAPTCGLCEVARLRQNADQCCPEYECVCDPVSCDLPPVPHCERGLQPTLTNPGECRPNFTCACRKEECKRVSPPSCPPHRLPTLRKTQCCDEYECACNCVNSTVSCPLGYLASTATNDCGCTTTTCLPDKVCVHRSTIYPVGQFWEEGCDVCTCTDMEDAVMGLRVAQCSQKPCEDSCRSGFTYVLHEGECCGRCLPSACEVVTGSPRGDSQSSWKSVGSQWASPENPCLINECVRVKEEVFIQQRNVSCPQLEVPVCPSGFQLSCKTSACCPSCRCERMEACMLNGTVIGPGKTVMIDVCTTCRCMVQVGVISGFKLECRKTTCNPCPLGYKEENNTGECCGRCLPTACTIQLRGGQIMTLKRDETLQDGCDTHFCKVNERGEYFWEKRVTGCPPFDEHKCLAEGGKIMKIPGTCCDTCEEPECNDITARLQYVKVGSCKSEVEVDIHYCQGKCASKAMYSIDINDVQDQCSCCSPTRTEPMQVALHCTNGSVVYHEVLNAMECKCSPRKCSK
T1 sequence (P07359 17-652): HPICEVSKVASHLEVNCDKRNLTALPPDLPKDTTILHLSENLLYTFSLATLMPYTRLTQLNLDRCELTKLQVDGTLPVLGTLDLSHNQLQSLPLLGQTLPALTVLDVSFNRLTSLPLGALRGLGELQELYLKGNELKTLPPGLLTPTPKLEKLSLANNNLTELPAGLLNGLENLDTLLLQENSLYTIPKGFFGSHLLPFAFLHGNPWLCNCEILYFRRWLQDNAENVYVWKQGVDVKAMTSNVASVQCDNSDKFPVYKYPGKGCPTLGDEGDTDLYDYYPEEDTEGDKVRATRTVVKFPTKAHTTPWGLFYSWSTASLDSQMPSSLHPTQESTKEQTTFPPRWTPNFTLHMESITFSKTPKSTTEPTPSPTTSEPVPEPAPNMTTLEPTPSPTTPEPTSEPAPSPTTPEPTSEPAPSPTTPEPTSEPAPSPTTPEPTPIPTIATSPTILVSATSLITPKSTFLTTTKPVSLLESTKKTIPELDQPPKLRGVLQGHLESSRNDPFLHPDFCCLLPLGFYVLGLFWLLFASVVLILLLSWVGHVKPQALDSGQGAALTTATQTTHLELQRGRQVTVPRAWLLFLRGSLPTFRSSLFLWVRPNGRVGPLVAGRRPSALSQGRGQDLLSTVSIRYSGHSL

| inhibition at 100 µg/mL [2] [%] | IC50 ([3]; read-out: IC50 (converted)) | IC50 [4] [µM] | Structure (SMILES) | APTT ICDCT [1] [µg/mL] | IC50 [3] | IC50 ([3]; unit printed in the cell of the nM column, read-out: IC50 (converted)) [nM] |
| --- | --- | --- | --- | --- | --- | --- |
| 21 | > 1400 nM |  | O=C(O)CCc1cc(Cc2cc(O)ccc2CCC(=O)O)c(O)cc1CCc1cc(O)c(Cc2cc(O)ccc2CCC(=O)O)cc1CCC(=O)O [Ex 3, 1,2-bis-[2-(2-carboxyethyl)-4-[2-(2-carboxyethyl)-5-hydroxybenzyl]-5-hydroxyphenyl]ethane] | 700 |  |  |
|  | 135 nM and 134 nM |  | O=C(O)COc1cc(Cc2cc(O)ccc2OCC(=O)O)c(O)cc1CCc1cc(O)c(Cc2cc(O)ccc2OCC(=O)O)cc1OCC(=O)O [Ex 17, 1 ,2-bis-[[2-carboxymethyloxy-5-hydroxy-4-(5-hydroxy-2-carboxymethyloxy)benzyl]phenyl]ethane] | 580 |  |  |
|  |  | 0.3 | O=C(O)COc1cc(Cc2cc(OCc3ccccc3)c(Cc3cc(OCc4ccccc4)c(Cc4cc(OCc5ccccc5)c(Cc5cc(OCc6ccccc6)c(Cc6cc(O)ccc6OCC(=O)O)cc5OCC(=O)O)cc4OCC(=O)O)cc3OCC(=O)O)cc2OCC(=O)O)c(OCc2ccccc2)cc1CO [Ex 19, 4-benzyloxy-5-[4-[4-[4-[4-[[2-carboxymethyloxy-5-hydroxy]benzyl]-[5-benzyloxy-2-carboxymethyloxy]benzyl]-[5-benzyloxy-2-carboxymethyloxy]benzyl]-[5-benzyloxy-2-carboxymethyloxy]benzyl]-[5-benzyloxy-2-carboxymethyloxy]benzyl]-2-hydroxymethylphenoxyacetic acid] | 345 |  |  |

The remaining lines, values behind:

| Structure (SMILES) | inhibition at 100 µg/mL [2] [%] | IC50 ([3]; read-out: IC50 (converted)) | IC50 [4] [µM] | APTT ICDCT [1] [µg/mL] | IC50 [3] | IC50 ([3]; unit printed in the cell of the nM column, read-out: IC50 (converted)) [nM] |
| --- | --- | --- | --- | --- | --- | --- |
| O=C(O)COc1cc(Cc2cc(OCc3ccccc3)c(Cc3cc(OCc4ccccc4)c(Cc4cc(O)ccc4OCC(=O)O)cc3OCC(=O)O)cc2OCC(=O)O)c(OCc2ccccc2)cc1CO [Ex 16, 4-benzyloxy-5-[4-[4-[[2-carboxymethyloxy-5-hydroxy]benzyl]-[5-benzyloxy-2-carboxymethyloxy]benzyl]-[5-benzyloxy-2-carboxymethyloxy]benzyl]-2-hydroxymethylphenoxyacetic acid] |  | 330 nM and 327 nM |  | 360 |  |  |
| O=C(O)COc1cc(Cc2cc(OCc3ccccc3)ccc2OCC(=O)O)c(O)cc1CCc1cc(O)c(Cc2cc(OCc3ccccc3)ccc2OCC(=O)O)cc1OCC(=O)O [Ex 20, 1,2-bis-[[2-carboxymethyloxy-5-hydroxy-4-(5-benzyloxy-2-carboxymethyloxy)benzyl]phenyl]ethane] |  |  |  | 555 | 780 nM and 779 nM |  |
| CCc1cc(OCC(=O)O)cc(Cc2cc(OCC(=O)O)cc(Cc3cc(OCC(=O)O)cc(Cc4cc(OCC(=O)O)ccc4OC)c3OC)c2OC)c1OC [Ex 22, 5-[3-[3-[[5-carboxymethyloxy-2-methoxy]benzyl]-[5-carboxymethyloxy-2-methoxy]benzyl]-[5-carboxymethyloxy-2-methoxy]benzyl]-3-ethyl-4-methoxyphenoxyacetic acid] |  |  |  | >315 |  | > 3e+06 |
| CCc1cc(OCC(=O)O)cc(Cc2cc(OCC(=O)O)cc(Cc3cc(OCC(=O)O)cc(Cc4cc(OCC(=O)O)cc(Cc5cc(OCC(=O)O)cc(Cc6cc(OCC(=O)O)cc(Cc7cc(OCC(=O)O)cc(Cc8cc(OCC(=O)O)ccc8OC)c7OC)c6OC)c5OC)c4OC)c3OC)c2OC)c1OC [Ex 23, 5-[3-[3-[3-[3-[3-[3-[[5-carboxymethyloxy-2-methoxy]benzyl]-[5-carboxymethyloxy-2-methoxy]benzyl]-[5-carboxymethyloxy-2-methoxy]benzyl]-[5-carboxymethyloxy-2-methoxy]benzyl]-[5-carboxymethyloxy-2-methoxy]benzyl]-[5-carboxymethyloxy-2-methoxy]benzyl]-[5-carboxymethyloxy-2-methoxy]benzyl]-3-ethyl-4-methoxyphenoxyacetic acid] |  |  | 0.3 | 300 |  |  |
